Drawing on US20250326739A1, “CD38 MODULATORS AND USES THEREOF” (Aeovian Pharmaceuticals, Inc., priority 2022, published 2025), this text covers IC50 for 27 compounds.

In general, IC50 refers to the concentration at which inhibition is half-maximal.

Experiment [1] concerns the target human CD38 (Homo sapiens (Human), UniProt P28907). The experiment in a line: NAD+ cyclase activity assay with human recombinant CD38 protein. The following applies: 1.9 nM human CD38, 15.8 μM e-NAD substrate, fluorescence read-out. The class given is biochemical. The method, then:
(§1) Example 5: NAD^+ Cydase Activity Assay with Human or Mouse Recombinant CD38 Protein
(§2) The following assay was used to determine the ability of compounds of the invention to inhibit the hydrolysis of NAD^+ by the human or mouse enzyme, CD38.
(§3) Reaction buffer: 40 mM HEPES/NaOH pH 7.5, 250 mM sucrose, 0.01% Tween
(§4) Final concentrations: 0.6 nM mouse CD38 (4947-AC, Bio-Techne GmbH) 1.9 nM human CD38 (AVI2404, Bio-Techne GmbH)
(§5) Substrate: 15.8 μM Nicotinamide 1,N6-ethenoadenine dinucleotide (E-NAD)
(§6) Read-out: Fluorescence intensity (extinction 300 nm/emission 410 nm)
(§7) Required reaction buffer, required CD38 concentration in reaction buffer and required e-NAD concentration in reaction buffer were prepared. Thereafter, 8 μL of CD38 in reaction buffer were added to High Control and compound concentration wells in 384 well plate (Corning #4514, 384 well, nonbinding surface, low volume, round bottom) and 8 μL of reaction buffer to Low Control. Compound dilutions were transferred via pintool technology that transfers 42.5 nL compound dilutions (12-point dose-response with factor three dilutions in 100% DMSO) well-to-well. Plate was subsequently shaken for 15 s at 1450 rpm and sealed for incubation for 30 min at room temperature. Thereafter, 2 μL of e-NAD in reaction buffer were added with Integra Voyager. After shaking for 15 s at 1450 rpm, plate was sealed, and assay signal was measured continuously with PHERAstar® fluorescence intensity module (extinction 300 nm/emission 410 nm).
(§8) Dose-response curves were constructed using twelve-point factor three dilutions in triplicates per plate. High control (full enzyme activity) was set to assay signal of CD38 and e-NAD in presence of vehicle (DMSO) and Low control (full enzyme inhibition) was set to assay signal of e-NAD and vehicle (DMSO) in absence of CD38. For data analysis, fluorescent signal of traces corresponding to each compound concentration and High and Low control was monitored over time. Each run, High Control (full enzyme activity) was fitted to Linear equation via GraphPad Prism to determine CD38 activity from the slope and determine the time interval of linear phase of reaction to account for minor fluctuations. Thereafter, slopes of all compound concentrations were determined via fitting to same linear equation (GraphPad Prism) over the same time interval as determined for High control. Percentage inhibition was calculated via normalization to High and Low Control via the equation: %−inhibition=100*(1−((Sample−Low control)/(High control−Low control))) Half maximal inhibitory concentration (IC50) values are yielded from the inflection point of the corresponding curve by fitting of resulting percentage inhibition values to standard equation (4 Parameter Logistic Model or Sigmoidal Dose-Response Model) via Excel Fit. Unless otherwise stated, fitting of curves was fixed to 100%-inhibition and unlocked for 0%-inhibition.

The target in experiment [2] is mouse CD38 (Mus musculus (Mouse), UniProt P56528). The experiment can be described thus: NAD+ cyclase activity assay with mouse recombinant CD38 protein. The experiment is classed as biochemical. The conditions noted are these: 0.6 nM mouse CD38, 15.8 μM e-NAD substrate, fluorescence read-out. The method, then:
as §1, §2, §3, §4, §5, §6, §7, §8

Sequence of mouse CD38 (P56528 whole entry): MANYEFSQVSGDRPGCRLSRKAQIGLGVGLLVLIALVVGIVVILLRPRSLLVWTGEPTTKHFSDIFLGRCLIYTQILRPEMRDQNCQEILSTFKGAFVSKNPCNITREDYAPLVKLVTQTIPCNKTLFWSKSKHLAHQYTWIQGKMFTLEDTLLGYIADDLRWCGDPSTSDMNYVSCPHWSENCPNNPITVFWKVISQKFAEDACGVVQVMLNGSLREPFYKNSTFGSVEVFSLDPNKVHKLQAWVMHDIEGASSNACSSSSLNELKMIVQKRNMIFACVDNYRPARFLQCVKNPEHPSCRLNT
Sequence of human CD38 (P28907 whole entry): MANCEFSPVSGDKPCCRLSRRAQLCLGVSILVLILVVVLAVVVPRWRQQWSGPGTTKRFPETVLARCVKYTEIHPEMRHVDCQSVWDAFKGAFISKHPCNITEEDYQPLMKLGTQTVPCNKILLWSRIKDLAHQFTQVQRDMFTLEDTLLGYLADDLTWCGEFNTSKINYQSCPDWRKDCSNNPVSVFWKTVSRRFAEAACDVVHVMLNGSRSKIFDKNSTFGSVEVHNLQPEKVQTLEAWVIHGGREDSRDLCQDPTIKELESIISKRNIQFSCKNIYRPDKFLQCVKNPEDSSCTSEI

For the compound `Cc1cc(C(=O)N[C@H]2CCCNC2=O)nc(-n2ccnc2)c1` [Compound 60A, (S)-6-(1H-Imidazol-1-yl)-4-methyl-N-(2-oxopiperidin-3-yl)picolinamide], the IC50 in experiment [1] fell in the range of 0.1 to 1 µM; in experiment [2], 0.001 to 0.01 µM.

As to `Cc1cc(C(=O)NC2CCN(S(C)(=O)=O)CC2)nc(-n2ccnc2)n1` [Compound 61A, 2-(1H-Imidazol-1-yl)-6-methyl-N-(1-(methylsulfonyl)piperidin-4-yl)pyrimidine-4-carboxamide], the 50% inhibitory concentration (IC50) in experiment [1] was under 0.03 µM; in experiment [2] it was under 0.001 µM.

On to `O=C(N[C@@H]1CCCOC1)c1cc(C(F)(F)F)cc(-n2ccnc2)n1` [Compound 62A, (R)-6-(1H-imidazol-1-yl)-N-(tetrahydro-2H-pyran-3-yl)-4-(trifluoromethyl)picolinamide], for which the IC50 in experiment [1] is under 0.03 µM; in experiment [2] it was 0.001 to 0.01 µM.

As for `Cc1cc(C(=O)N[C@@H]2CCC(=O)NC2=O)nc(-n2ccnc2)c1` [Compound 63A, (R)—N-(2,6-Dioxopiperidin-3-yl)-6-(1H-imidazol-1-yl)-4-methylpicolinamide], the IC50 in experiment [1] is over 1 µM; in experiment [2], 0.01 to 0.1 µM.

As to `Cc1cc(C(=O)N[C@@H]2CCC(C)(C)OC2)nc(-n2ccnc2)c1` [Compound 64A, (R)—N-(6,6-Dimethyltetrahydro-2H-pyran-3-yl)-6-(1H-imidazol-1-yl)-4-methylpicolinamide], the IC50 in experiment [1] was 0.03 to 0.1 µM; in experiment [2], 0.001 to 0.01 µM.

Regarding `Cc1cc(C(=O)N[C@H]2CCC(C)(C)OC2)nc(-n2ccnc2)c1` [Compound 65A, (S)—N-(6,6-Dimethyltetrahydro-2H-pyran-3-yl)-6-(1H-imidazol-1-yl)-4-methylpicolinamide], the figures for the IC50 in experiment [1] and in experiment [2] were 0.1 to 1 µM and 0.001 to 0.01 µM, respectively.

Regarding `Cc1cc(C(=O)N[C@H]2COCC(F)(F)C2)nc(-n2ccnc2)c1` [Compound 66A, (R)—N-(5,5-Difluorotetrahydro-2H-pyran-3-yl)-6-(1H-imidazol-1-yl)-4-methylpicolinamide], the IC50 in experiment [1] was 0.03 to 0.1 µM; in experiment [2] it was under 0.001 µM.

As for `Cc1cc(C(=O)N[C@@H]2CCS(=O)(=O)C2)nc(-n2ccnc2)n1` [Compound 68A, (R)—N-(1,1-Dioxidotetrahydrothiophen-3-yl)-2-(1H-imidazol-1-yl)-6-methylpyrimidine-4-carboxamide], the IC50 in experiment [1] is under 0.03 µM; in experiment [2], under 0.001 µM.

Take `Cc1cc(C(=O)N[C@@H]2CCCOC2)nc(-n2ccnc2)n1` [Compound 69A, (R)-2-(1H-Imidazol-1-yl)-6-methyl-N-(tetrahydro-2H-pyran-3-yl)pyrimidine-4-carboxamide]: the IC50 was under 0.03 µM in experiment [1] and under 0.001 µM in experiment [2].

For `Cc1cc(C(=O)N[C@H]2COCCC2(F)F)nc(-n2ccnc2)c1` [Compound 70A, (S)—N-(4,4-Difluorotetrahydro-2H-pyran-3-yl)-6-(1H-imidazol-1-yl)-4-methylpicolinamide], the IC50 was in the range of 0.03 to 0.1 µM in experiment [1] and 0.001 to 0.01 µM in experiment [2].

As for `Cc1cc(C(=O)N[C@@H]2COCCC2(F)F)nc(-n2ccnc2)c1` [Compound 71A, (R)—N-(4,4-Difluorotetrahydro-2H-pyran-3-yl)-6-(1H-imidazol-1-yl)-4-methylpicolinamide], the values for the IC50 in experiment [1] and in experiment [2] were 0.03 to 0.1 µM and under 0.001 µM, respectively.

Consider `Cc1cc(C(=O)NC2CCN(S(=O)(=O)C3CCOC3)CC2)nc(-n2ccnc2)c1` (stereo not drawn) [Compound 72A, 6-(1H-Imidazol-1-yl)-4-methyl-N-(1-((tetrahydrofuran-3-yl)sulfonyl)piperidin-4-yl)picolinamide], for which the IC50 in experiment [1] was under 0.03 µM; in experiment [2] it was under 0.001 µM.

For `CS(=O)(=O)N1CCC(NC(=O)c2ccnc(-n3ccnc3)n2)CC1` [Compound 73A, 2-(1H-Imidazol-1-yl)-N-(1-(methylsulfonyl)piperidin-4-yl)pyrimidine-4-carboxamide], the IC50 in experiment [1] is under 0.03 µM; in experiment [2] it was 0.001 to 0.01 µM.

For the compound `O=C(N[C@@H]1CCS(=O)(=O)C1)c1ccnc(-n2ccnc2)n1` [Compound 74A, (R)—N-(1,1-Dioxidotetrahydrothiophen-3-yl)-2-(1H-imidazol-1-yl)pyrimidine-4-carboxamide], the figures for the IC50 in experiment [1] and in experiment [2] were under 0.03 µM and 0.001 to 0.01 µM, respectively.

Take `CS(=O)(=O)N1CCC(NC(=O)c2cc(C(F)(F)F)nc(-n3ccnc3)n2)CC1` [Compound 75A, 2-(1H-Imidazol-1-yl)-N-(1-(methylsulfonyl)piperidin-4-yl)-6-(trifluoromethyl)pyrimidine-4-carboxamide]: the IC50 in experiment [1] was 0.03 to 0.1 µM; in experiment [2], 0.001 to 0.01 µM.

Take `O=C(N[C@@H]1CCCOC1)c1cc(C(F)(F)F)nc(-n2ccnc2)n1` [Compound 76A, (R)-2-(1H-Imidazol-1-yl)-N-(tetrahydro-2H-pyran-3-yl)-6-(trifluoromethyl)pyrimidine-4-carboxamide]: the IC50 lay within 0.03 to 0.1 µM in experiment [1] and 0.001 to 0.01 µM in experiment [2].

As for `O=C(N[C@@H]1CCS(=O)(=O)C1)c1cc(C(F)(F)F)nc(-n2ccnc2)n1` [Compound 77A, (R)—N-(1,1-Dioxidotetrahydrothiophen-3-yl)-2-(1H-imidazol-1-yl)-6-(trifluoromethyl)pyrimidine-4-carboxamide], the results for the IC50 in experiment [1] and in experiment [2] were 0.03 to 0.1 µM and 0.001 to 0.01 µM, respectively.

As to `O=C(N[C@@H]1CCS(=O)(=O)C1)c1cc(C(F)(F)F)cc(-n2ccnc2)n1` [Compound 78A, (R)—N-(1,1-Dioxidotetrahydrothiophen-3-yl)-6-(1H-imidazol-1-yl)-4-(trifluoromethyl)picolinamide], the IC50 in experiment [1] was under 0.03 µM; in experiment [2], 0.001 to 0.01 µM.

Regarding `Cc1ccc(-n2ccnc2)nc1C(=O)NC1CCN(S(C)(=O)=O)CC1` [Compound 79A, 6-(1H-Imidazol-1-yl)-3-methyl-N-(1-(methylsulfonyl)piperidin-4-yl)picolinamide], the results for the IC50 in experiment [1] and in experiment [2] were 0.1 to 1 µM and 0.01 to 0.1 µM, respectively.

Turning to `O=C(N[C@@H]1CCCOC1)c1ccnc(-n2ccnc2)n1` [Compound 80A, (R)-2-(1H-Imidazol-1-yl)-N-(tetrahydro-2H-pyran-3-yl)pyrimidine-4-carboxamide], the figures for the IC50 in experiment [1] and in experiment [2] were under 0.03 µM and 0.001 to 0.01 µM, respectively.

For the compound `Cc1ccc(-n2ccnc2)nc1C(=O)N[C@@H]1CCCOC1` [Compound 81A, (R)-6-(1H-Imidazol-1-yl)-3-methyl-N-(tetrahydro-2H-pyran-3-yl)picolinamide], the IC50 in experiment [1] was 0.1 to 1 µM; in experiment [2] it was 0.01 to 0.1 µM.

As for `CS(=O)(=O)N1CCC(NC(=O)c2cc(C(F)(F)F)cc(-n3ccnc3)n2)CC1` [Compound 82A, 6-(1H-Imidazol-1-yl)-N-(1-(methylsulfonyl)piperidin-4-yl)-4-(trifluoromethyl)picolinamide], the values for the IC50 in experiment [1] and in experiment [2] were under 0.03 µM and 0.001 to 0.01 µM, respectively.

As for `Cc1cc(C(=O)N[C@@H]2CCCN(C3COC3)C2)nc(-n2ccnc2)c1` [Compound 83A, (R)-6-(1H-Imidazol-1-yl)-4-methyl-N-(1-(oxetan-3-yl)piperidin-3-yl)picolinamide], the figures for the IC50 in experiment [1] and in experiment [2] were over 1 µM and 0.01 to 0.1 µM, respectively.

Regarding `Cc1cc(C(=O)N[C@H]2CCCS(=O)(=O)C2)nc(-n2ccnc2)c1` [Compound 84A, (S)—N-(1,1-Dioxidotetrahydro-2H-thiopyran-3-yl)-6-(1H-imidazol-1-yl)-4-methylpicolinamide], the IC50 is 0.1 to 1 µM in experiment [1] and 0.01 to 0.1 µM in experiment [2].

Consider `Cc1cc(C(=O)N[C@H]2CCCN(C)C2=O)nc(-n2ccnc2)c1` [Compound 85A, (S)-6-(1H-Imidazol-1-yl)-4-methyl-N-(1-methyl-2-oxopiperidin-3-yl)picolinamide], for which the values for the IC50 in experiment [1] and in experiment [2] were 0.1 to 1 µM and 0.01 to 0.1 µM, respectively.

In the case of `Cc1cc(C(=O)N[C@@H]2CCS(=O)(=O)C2)nc(-n2ccnc2)c1` [Compound 86A, (R)—N-(1,1-Dioxidotetrahydrothiophen-3-yl)-6-(1H-imidazol-1-yl)-4-methylpicolinamide], the half-maximal inhibitory concentration (IC50) in experiment [1] was under 0.03 µM; in experiment [2] it was 0.001 to 0.01 µM.

As to `Cc1cc(C(=O)NC2CCN(S(=O)(=O)C3COC3)CC2)nc(-n2ccnc2)c1` [Compound 87A, 6-(1H-Imidazol-1-yl)-4-methyl-N-(1-(oxetan-3-ylsulfonyl)piperidin-4-yl)picolinamide], the IC50 in experiment [1] is under 0.03 µM; in experiment [2] it was 0.001 to 0.01 µM.
